Values quoted from earlier work, collected in patent US4582821A, “Inhibition of cyclic nucleotide independent protein kinases” (E. I. Du Pont de Nemours and Company, priority 1983, dated 1986).

What was measured:
hexokinase = details: Johnson et al., Biochemistry 21:2984 (1982); cited from earlier work
protein kinase = details: Johnson et al., Biochemistry 21:2984 (1982); cited from earlier work

In the case of `CC(C)COC(=O)OC(C)C(=O)CCl` (centres unmarked) [2-isobutyl 3-oxo-4-chloro-2-butyl carbonate], the “hexokinase activity of Ehrlich ascites tumor cells (in words)” value (hexokinase) is given as “inhibition” and the “protein kinase activity of Ehrlich ascites tumor cells (in words)” value (protein kinase) is given as “inhibition”.
